According to article PMC12586182 (Frontiers in Oncology, 2025):

Key:
SIK3 = SIK3 (Homo sapiens, UniProt Q9Y2K2); assay: Kinase enzyme activity assay at 1 mmol/L ATP (Carna)
Procedure: (§2) Inhibition of MLK1 and B-RAF at K M,ATP was determined in a radiometric assay using ^32P-labeled ATP at Eurofins Cerep SA (Celle-Lévescault, France).

B-RAF = B-RAF (Homo sapiens, UniProt P15056); assay: Radiometric kinase assay with 32P-labeled ATP (Eurofins), cascade assay
Procedure: as §2

NCI-H2228 = assay: Cell viability assay (ATPlite); type: cell-based; details: Homo sapiens; NCI-H2228 cell line, 72 hours incubation
Summary of the method: (§1)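 Cells grew 24 h, then received 9-point √10-fold compound series in duplicate (0.4% DMSO final) for 72 h. ATP content was read by ATPlite luminescence and normalized to vehicle controls as % viability. IC50 came from a four-parameter logistic fit; curves with F-value above 1.5 were invalidated, with IC50 then set at the top concentration.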

MIA PaCa-2 = assay: Cell viability assay (ATPlite); type: cell-based; details: Homo sapiens; MIA PaCa-2 cell line, 72 hours incubation
Summary of the method: as §1

RD = assay: Cell viability assay (ATPlite); type: cell-based; details: Homo sapiens; RD cell line, 72 hours incubation
Summary of the method: as §1

RPMI-7951 = assay: Cell viability assay (ATPlite); type: cell-based; details: Homo sapiens; RPMI-7951 cell line, 72 hours incubation
Summary of the method: as §1

Jurkat E6.1 = assay: Cell viability assay (ATPlite); type: cell-based; details: Homo sapiens; Jurkat E6.1 cell line, 72 hours incubation
Summary of the method: as §1

TOV-112D = assay: Cell viability assay (ATPlite); type: cell-based; details: Homo sapiens, TOV112D; TOV-112D cell line, 72 hours incubation
Summary of the method: as §1

FaDu = assay: Cell viability assay (ATPlite); type: cell-based; details: Homo sapiens; FaDu cell line, 72 hours incubation
Summary of the method: as §1

A-704 = assay: Cell viability assay (ATPlite); type: cell-based; details: Homo sapiens, A704; A-704 cell line, 72 hours incubation
Summary of the method: as §1

VA-ES-BJ = assay: Cell viability assay (ATPlite); type: cell-based; details: Homo sapiens; VA-ES-BJ cell line, 72 hours incubation
Summary of the method: as §1

A-549 = assay: Cell viability assay (ATPlite); type: cell-based; details: Homo sapiens, A549; A-549 cell line, 72 hours incubation
Summary of the method: as §1

MeWo = assay: Cell viability assay (ATPlite); type: cell-based; details: Homo sapiens; MeWo cell line, 72 hours incubation
Summary of the method: as §1

SK-N-FI = assay: Cell viability assay (ATPlite); type: cell-based; details: Homo sapiens; SK-N-FI cell line, 72 hours incubation
Summary of the method: as §1

A-375 = assay: Cell viability assay (ATPlite); type: cell-based; details: Homo sapiens; A-375 cell line, 72 hours incubation
Summary of the method: as §1

Daoy = assay: Cell viability assay (ATPlite); type: cell-based; details: Homo sapiens; Daoy cell line, 72 hours incubation
Summary of the method: as §1

KMS-11 = assay: Cell viability assay (ATPlite); type: cell-based; details: Homo sapiens; KMS-11 cell line, 72 hours incubation
Summary of the method: as §1

TT = assay: Cell viability assay (ATPlite); type: cell-based; details: Homo sapiens; TT cell line, 72 hours incubation
Summary of the method: as §1

Ku812 = assay: Cell viability assay (ATPlite); type: cell-based; details: Homo sapiens; Ku812 cell line, 72 hours incubation
Summary of the method: as §1

G-361 = assay: Cell viability assay (ATPlite); type: cell-based; details: Homo sapiens; G-361 cell line, 72 hours incubation
Summary of the method: as §1

NCI-H661 = assay: Cell viability assay (ATPlite); type: cell-based; details: Homo sapiens; NCI-H661 cell line, 72 hours incubation
Summary of the method: as §1

BT-474 = assay: Cell viability assay (ATPlite); type: cell-based; details: Homo sapiens; BT-474 cell line, 72 hours incubation
Summary of the method: as §1

MDA-MB-468 = assay: Cell viability assay (ATPlite); type: cell-based; details: Homo sapiens; MDA-MB-468 cell line, 72 hours incubation
Summary of the method: as §1

NCI-H1650 = assay: Cell viability assay (ATPlite); type: cell-based; details: Homo sapiens; NCI-H1650 cell line, 72 hours incubation
Summary of the method: as §1

BL-70 = assay: Cell viability assay (ATPlite); type: cell-based; details: Homo sapiens; BL-70 cell line, 72 hours incubation
Summary of the method: as §1

SU-DHL-1 = assay: Cell viability assay (ATPlite); type: cell-based; details: Homo sapiens; SU-DHL-1 cell line, 72 hours incubation
Summary of the method: as §1

C-33 A = assay: Cell viability assay (ATPlite); type: cell-based; details: Homo sapiens; C-33 A cell line, 72 hours incubation
Summary of the method: as §1

SW480 = assay: Cell viability assay (ATPlite); type: cell-based; details: Homo sapiens; SW480 cell line, 72 hours incubation
Summary of the method: as §1

NCI-H716 = assay: Cell viability assay (ATPlite); type: cell-based; details: Homo sapiens; NCI-H716 cell line, 72 hours incubation
Summary of the method: as §1

activated B-RAF = activated B-RAF (Homo sapiens, UniProt P15056); assay: biochemical
Sequence of activated B-RAF (P15056 whole entry): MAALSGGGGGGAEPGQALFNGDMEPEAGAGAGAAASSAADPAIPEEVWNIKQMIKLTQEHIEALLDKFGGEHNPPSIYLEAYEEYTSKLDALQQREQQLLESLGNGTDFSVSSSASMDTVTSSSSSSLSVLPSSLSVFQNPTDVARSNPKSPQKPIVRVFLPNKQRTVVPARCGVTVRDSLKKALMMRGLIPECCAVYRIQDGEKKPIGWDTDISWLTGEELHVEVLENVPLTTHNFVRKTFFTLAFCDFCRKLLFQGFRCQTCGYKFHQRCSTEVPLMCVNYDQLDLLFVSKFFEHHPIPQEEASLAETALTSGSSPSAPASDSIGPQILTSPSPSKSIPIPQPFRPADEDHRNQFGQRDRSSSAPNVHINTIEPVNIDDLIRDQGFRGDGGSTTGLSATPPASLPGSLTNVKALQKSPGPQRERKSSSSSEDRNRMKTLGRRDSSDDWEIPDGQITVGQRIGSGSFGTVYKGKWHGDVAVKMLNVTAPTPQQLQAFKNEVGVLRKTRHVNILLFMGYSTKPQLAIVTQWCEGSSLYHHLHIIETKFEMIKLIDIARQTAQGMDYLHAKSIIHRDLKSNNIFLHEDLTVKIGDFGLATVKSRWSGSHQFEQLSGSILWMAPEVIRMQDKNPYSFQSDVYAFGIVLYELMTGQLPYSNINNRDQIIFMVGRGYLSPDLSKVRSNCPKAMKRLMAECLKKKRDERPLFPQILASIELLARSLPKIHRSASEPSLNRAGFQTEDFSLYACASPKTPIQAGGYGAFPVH

Sequence of B-RAF (P15056 2-766): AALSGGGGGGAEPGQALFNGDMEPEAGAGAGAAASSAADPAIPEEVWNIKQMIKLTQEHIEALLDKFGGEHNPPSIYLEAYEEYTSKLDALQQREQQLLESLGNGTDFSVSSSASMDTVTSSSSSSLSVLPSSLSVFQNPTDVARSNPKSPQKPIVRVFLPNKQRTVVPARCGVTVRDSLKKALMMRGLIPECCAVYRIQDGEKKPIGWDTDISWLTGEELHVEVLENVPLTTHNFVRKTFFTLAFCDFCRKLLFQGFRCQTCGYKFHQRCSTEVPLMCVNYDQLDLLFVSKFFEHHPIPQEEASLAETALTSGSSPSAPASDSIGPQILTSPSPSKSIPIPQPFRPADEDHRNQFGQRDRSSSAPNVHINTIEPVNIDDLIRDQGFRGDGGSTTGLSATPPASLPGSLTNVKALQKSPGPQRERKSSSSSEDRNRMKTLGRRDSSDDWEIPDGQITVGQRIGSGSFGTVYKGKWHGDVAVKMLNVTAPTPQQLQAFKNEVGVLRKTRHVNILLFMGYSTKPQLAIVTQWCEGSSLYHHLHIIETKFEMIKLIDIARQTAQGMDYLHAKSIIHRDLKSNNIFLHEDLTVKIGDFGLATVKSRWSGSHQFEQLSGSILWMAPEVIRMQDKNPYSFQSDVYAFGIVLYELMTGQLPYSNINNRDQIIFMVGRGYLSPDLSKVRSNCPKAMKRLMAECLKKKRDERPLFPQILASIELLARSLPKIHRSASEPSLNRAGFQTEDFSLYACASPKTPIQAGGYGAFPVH
Sequence of B-RAF (Q02750 whole entry, further chain): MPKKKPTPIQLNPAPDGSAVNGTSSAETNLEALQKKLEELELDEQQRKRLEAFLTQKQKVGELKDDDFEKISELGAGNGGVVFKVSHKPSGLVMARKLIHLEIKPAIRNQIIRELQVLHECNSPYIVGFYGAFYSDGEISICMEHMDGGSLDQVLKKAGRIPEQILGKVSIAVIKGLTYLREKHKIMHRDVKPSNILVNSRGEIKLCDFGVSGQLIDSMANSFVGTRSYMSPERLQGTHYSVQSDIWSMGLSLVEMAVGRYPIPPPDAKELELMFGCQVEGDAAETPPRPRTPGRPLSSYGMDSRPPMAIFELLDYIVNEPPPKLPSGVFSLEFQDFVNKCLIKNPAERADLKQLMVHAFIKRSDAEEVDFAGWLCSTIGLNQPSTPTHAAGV
Sequence of B-RAF (P28482 2-360, further chain): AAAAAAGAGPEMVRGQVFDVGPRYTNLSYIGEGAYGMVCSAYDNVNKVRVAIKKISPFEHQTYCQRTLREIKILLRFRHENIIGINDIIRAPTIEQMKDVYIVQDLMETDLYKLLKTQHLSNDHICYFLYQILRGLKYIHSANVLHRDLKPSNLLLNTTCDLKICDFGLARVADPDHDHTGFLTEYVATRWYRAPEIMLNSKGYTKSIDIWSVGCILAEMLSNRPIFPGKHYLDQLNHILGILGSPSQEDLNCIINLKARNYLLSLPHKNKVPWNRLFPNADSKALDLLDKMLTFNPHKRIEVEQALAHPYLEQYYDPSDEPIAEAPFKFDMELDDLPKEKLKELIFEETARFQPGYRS
Sequence of SIK3 (Q9Y2K2 whole entry): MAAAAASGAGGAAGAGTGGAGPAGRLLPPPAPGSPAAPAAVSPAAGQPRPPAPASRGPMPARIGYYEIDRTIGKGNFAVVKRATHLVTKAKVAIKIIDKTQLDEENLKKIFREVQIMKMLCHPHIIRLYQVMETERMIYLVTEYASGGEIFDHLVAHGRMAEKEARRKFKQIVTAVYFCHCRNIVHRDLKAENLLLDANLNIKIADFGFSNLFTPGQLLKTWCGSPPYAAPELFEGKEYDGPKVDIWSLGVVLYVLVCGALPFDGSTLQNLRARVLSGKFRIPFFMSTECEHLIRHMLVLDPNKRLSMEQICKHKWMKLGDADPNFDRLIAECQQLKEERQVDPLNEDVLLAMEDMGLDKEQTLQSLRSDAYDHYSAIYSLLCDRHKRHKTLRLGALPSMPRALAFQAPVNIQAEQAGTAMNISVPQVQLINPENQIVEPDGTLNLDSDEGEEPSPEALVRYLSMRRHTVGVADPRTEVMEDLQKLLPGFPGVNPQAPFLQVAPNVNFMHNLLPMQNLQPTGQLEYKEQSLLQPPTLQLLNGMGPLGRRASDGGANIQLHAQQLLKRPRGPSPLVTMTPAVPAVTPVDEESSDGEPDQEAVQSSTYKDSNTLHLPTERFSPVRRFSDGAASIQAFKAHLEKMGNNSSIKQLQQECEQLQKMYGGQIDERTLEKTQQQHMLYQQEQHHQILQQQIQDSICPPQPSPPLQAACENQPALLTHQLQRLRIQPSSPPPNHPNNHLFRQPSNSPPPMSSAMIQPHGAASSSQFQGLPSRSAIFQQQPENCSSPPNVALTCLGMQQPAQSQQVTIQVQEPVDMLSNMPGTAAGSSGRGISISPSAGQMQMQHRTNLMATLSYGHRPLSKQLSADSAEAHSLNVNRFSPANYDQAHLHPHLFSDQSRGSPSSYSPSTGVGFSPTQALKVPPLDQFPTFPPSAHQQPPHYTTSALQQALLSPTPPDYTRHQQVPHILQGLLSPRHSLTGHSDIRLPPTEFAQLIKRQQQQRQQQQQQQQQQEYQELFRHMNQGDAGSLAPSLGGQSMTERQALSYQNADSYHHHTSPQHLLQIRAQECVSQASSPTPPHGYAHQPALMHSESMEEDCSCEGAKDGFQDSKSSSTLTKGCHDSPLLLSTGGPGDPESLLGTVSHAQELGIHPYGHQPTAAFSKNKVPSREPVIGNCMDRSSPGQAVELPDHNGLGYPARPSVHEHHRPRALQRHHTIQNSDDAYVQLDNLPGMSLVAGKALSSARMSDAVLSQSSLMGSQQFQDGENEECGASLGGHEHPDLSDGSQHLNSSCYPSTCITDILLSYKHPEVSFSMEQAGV

O=C(c1ccc(Oc2ccccc2)cc1Cl)c1c[nH]c2ncnc(N[C@@H]3CC[C@@H](CO)OC3)c12 [nemtabrutinib]
IC50 (SIK3): 9.32 µM | IC50 (B-RAF): 0.073 µM | IC50 (NCI-H2228): 7.5 µM | IC50 (MIA PaCa-2): 2.77 µM | IC50 (RD): 3.44 µM | IC50 (RPMI-7951): 2.22 µM | IC50 (Jurkat E6.1): 0.267 µM | IC50 (TOV-112D): 2.76 µM | IC50 (FaDu): 1.3 µM | IC50 (A-704): 16.3 µM | IC50 (VA-ES-BJ): 7.98 µM | IC50 (A-549): 7.26 µM | IC50 (MeWo): 10.2 µM | IC50 (SK-N-FI): 3.94 µM | IC50 (A-375): 0.404 µM | IC50 (Daoy): 7.17 µM | IC50 (KMS-11): 4.65 µM | IC50 (TT): 5.33 µM | IC50 (Ku812): 1.43 µM | IC50 (G-361): 1.08 µM | IC50 (NCI-H661): 2.38 µM | IC50 (BT-474): 3.11 µM | IC50 (MDA-MB-468): 6.25 µM | IC50 (NCI-H1650): 9.8 µM | IC50 (BL-70): 0.498 µM | IC50 (SU-DHL-1): 6.22 µM | IC50 (C-33 A): 1.32 µM | IC50 (SW480): 3.34 µM | IC50 (NCI-H716): 1.46 µM | Kd (activated B-RAF): 1.2 µM
